Assay results as given in article PMC12013143, “Ionic liquid-iontophoresis mediates transdermal delivery of sparingly soluble drugs” (Drug Delivery, 2025).
Values after ≈ are worked out from the molar mass of the structure shown. Values joined by “and” are separate entries in the source; they are usually repeats but may differ in a detail not shown here. Equal values may be shown once.

How the values were obtained:
[1] = In vitro skin permeation/retention with IL alone, horizontal diffusion cells; type: in vitro ADME; details: excised rat skin; for Effect on promoting permeation/retention of indomethacin: 20% IL or 1%SDS (label = vehicle); for Permeation/retention enhancement effect on apremilast: 20% IL (label = IL)
Description: (§1) Anesthetize rats by intraperitoneal injection with a dose of 1.0 g/kg urethane solution. Then remove the back hair using a pet shaver. Carefully remove the muscle tissue from the inner side of the skin with a surgical knife, cut it into small pieces, soak it in physiological saline for 30 min, cover the diffusion cell opening, and secure it with a clip. Intact rat skin was positioned between two cells, with the SC facing the donor compartment. The drugs were precisely measured at a weight of 4.00 mg each and subsequently dissolved in 4 mL of ILs or other control solutions, and added in donor compartment. The 0.01 M PBS (pH 6.8, 4.0 mL) was chosen as receptor medium. Sampling of ILs was conducted at various time points, specifically at 0, 4, 6, 8, 10, and 24 h. Following each sampling, 2.0 mL (all receptor medium was removed at the 10-h time point) of receptor medium was replaced with fresh PBS solution. The transdermal penetration of IS or IL-IS was conducted using an electroosmosis apparatus (Dajia DL-Z, China) to ensure a consistent current intensity of 0–0.5 mA. […] A receiving solution (2.0 mL) was collected at 1, 2, 4, 6, 8, and 10 h. After skin permeation experiments, rat skins were subsequently removed from cells, cut into pieces, and immersed in methanol for 12 h. The samples were then diluted with mobile phase at a ratio of 1:10. Following centrifugation for 10 min at 9000 rpm, the resulting supernatants were analyzed using HPLC, as previously described.
(§2) The drug skin permeation amount of solution system was calculated through concentration and volume of each sampling point: Q=[Cn×Vo+∑i=1n−1Ci×V]/S
(§3) In this experiment, Vo: 4.0 mL; V: 2.0 mL (24 h point: 4 mL); S: 0.74 cm^2.
(§4) The drug skin retention amount was calculated as follows: R=M/S

[2] = In vitro skin permeation/retention with iontophoresis (IS) or IL-IS, horizontal diffusion cells; type: in vitro ADME, rat; details: for Effect of current intensity on retention amount / Effect of current intensity on transdermal permeation / Retention in negative current relative to positive current / Permeation in negative current relative to positive current / Increase of transdermal permeation by IL-IS / Increase of transdermal permeation by IL / Permeation applying IL-IS relative to IL alone / Permeation applying IL-IS relative to IS alone: 20% [Cho] [Cin]; for Effect of current intensity on retention amount / Effect of current intensity on transdermal permeation: negative current 0.1–0.3 mA; for Retention in negative current relative to positive current / Permeation in negative current relative to positive current: 0.3 mA; for Permeation in negative current relative to positive current / Increase of transdermal permeation by IL-IS / Increase of transdermal permeation by IL / Increase of transdermal permeation by IS: 10 h cumulative penetration; for Increase of transdermal permeation by IL: no current; for Increase of transdermal permeation by IS: no IL
Description: as §1, §2, §3, §4

HaCaT cells = assay: Cytotoxicity of ILs, CCK-8 assay; type: cell-based, human; details: 24 h incubation
Description: The cytotoxicity of ILs to HaCaT cells was assessed using the Cell Counting Kit 8 (CCK-8) assay. The cell suspension (100 µL) was transferred to a 96-well plate at 8 × 10^3 cells/mL. Then, the 96-well plate was placed in a cell incubator. After 24 h, the medium was removed, and the cells were washed with phosphate-buffered saline (PBS, pH 7.4, 0.1 M). Then, ILs at different concentrations was added to each well for stimulation. After incubation for 24 h, CCK-8 solution (10 µL) was added to each well, followed by incubation for 2 h. The absorbance was measured at 450 nm using a microplate reader (SpectraMax iD5, Molecular Devices, America), and the cell viability was calculated.

[3] = General properties of ILs diluted to 20% (w/w) with water: pH, electrical conductivity, viscosity; type: physicochemical; details: 20%IL in water
Description: Viscosity was determined using a viscometer (DV2T, Brookfield, America).

physchem = details: Solubilities
rat skin = assay: CLSM of rhodamine B penetration into rat skin in vivo, with or without endocytosis inhibitors; details: for Fluorescence intensity after treatment with endocytosis inhibitors: nystatin, indomethacin, chlorpromazine applied 1 h before
[4] = 20% IL (label = IL), negative current 0.3 mA, 10 h
[5] = aripiprazole in 20% IL (label = IL)
[6] = pH 4.5, aqueous buffer, thermodynamic from solid
[7] = pH 6.8, aqueous buffer, thermodynamic from solid
[8] = pH 9, aqueous buffer, thermodynamic from solid
[9] = water, thermodynamic from solid

Structure (SMILES)	Electric conductivity [3]	Viscosity [3]	Cumulative permeation after 24 h ([1]; drug in water)	Skin retention amount after 24 h ([1]; drug in water)	Effect of current intensity on retention amount ([2]; 10 h)	Effect of current intensity on transdermal permeation ([2]; 10 h)	Increase of transdermal permeation by IL-IS ([2]; negative current 0.3 mA)	Increase of transdermal permeation by IL [2]	Increase of transdermal permeation by IS ([2]; negative current 0.3 mA)	solubility (physchem; [6])	solubility (physchem; [7])	solubility (physchem; [8])	solubility (physchem; [9])	Permeation applying IL-IS relative to IL alone ([2]; negative current 0.3 mA, 10 h)	other results
CCCCCCCCCCCCOS(=O)(=O)[O-].[Na+] [1%SDS, sodium dodecyl sulfate]															Effect on promoting permeation/retention of indomethacin ([1]; 24 h): no significant effect
CC(=O)[O-].C[N+](C)(C)CCO [[Cho] [Ace]]	32.12 ± 0.03 ms/cm	1.69 ± 0.08 mPa·s													Permeation/retention enhancement effect on apremilast ([1]; 24 h): did not have significant permeation/retention enhancement effects; 24 h cumulative permeability of indomethacin relative to water ([1]; indomethacin in 20% IL (label = IL)): 4.8 times; Permeation enhancement effect on aripiprazole when IL-IS applied [2, 4]: did not have significant permeation enhancement effects; Cytotoxicity of ILs, descending order (from LD 50) (HaCaT cells): [Cho] [Ole] > [Cho] [Cin] > [Cho] [Ger] > [Cho] [Ace] > [Cho] [Tar]; pH [3]: 9.37 and 9.37 ± 0.01
C[N+](C)(C)CCO.O=C([O-])/C=C/c1ccccc1 [[Cho] [Cin]]	18.60 ± 0.06 ms/cm	1.97 ± 0.04 mPa·s													Permeation of aripiprazole after 24 h, in words [1, 5]: did not show a significant difference; Skin retention of aripiprazole after 24 h, in words [1, 5]: surpassed that of other ILs; Increase of 10 h cumulative permeation of aripiprazole with IL-IS compared to IL or IS alone ([2]; 20% IL (label = IL), negative current 0.3 mA): 14 fold; pH [3]: 8.27 and 8.27 ± 0.01
C[N+](C)(C)CCO.O=C([O-])C(O)C(O)C(=O)O (stereo not drawn) [[Cho] [Tar]]	28.74 ± 0.01 ms/cm	1.48 ± 0.01 mPa·s													Permeation/retention enhancement effect on apremilast ([1]; 24 h): did not have significant permeation/retention enhancement effects; Effect on promoting permeation/retention of indomethacin ([1]; 24 h): no significant effect; Permeation enhancement effect on aripiprazole when IL-IS applied [2, 4]: did not have significant permeation enhancement effects
CCOc1cc([C@@H](CS(C)(=O)=O)N2C(=O)c3cccc(NC(C)=O)c3C2=O)ccc1OC [apremilast]			8.1 µg/cm^2	6.1 µg/cm^2	did not result in a significant difference	not significantly enhanced	16 fold	31 fold	little effect	18.3 ± 7.2 µg/mL (≈ 39.7 µM)	13.5 ± 0.5 µg/mL (≈ 29.3 µM)	6.8 ± 1 µg/mL (≈ 14.8 µM)	21.8 ± 3.8 µg/mL (≈ 47.3 µM)		Transdermal permeation versus [Cho] [Cin] concentration ([1]; IL alone, 24 h): linear correlation; Skin retention amount versus [Cho] [Cin] concentration ([1]; [Cho] [Cin] 0–20%, IL alone): no significant change; Retention in negative current relative to positive current ([2]; 10 h): ~3.4 fold; Permeation in negative current relative to positive current [2]: about 3.2 fold; solubility (physchem): 21.8 ± 3.8 µg/mL (≈ 47.3 µM)
O=C1CCc2ccc(OCCCCN3CCN(c4cccc(Cl)c4Cl)CC3)cc2N1 [aripiprazole]			negligible	1.1 µg/cm^2	did not result in a significant difference	positive linear correlation	14 fold	little effect	little effect	152 ± 16.3 µg/mL (≈ 338 µM)	8.5 ± 3.2 µg/mL (≈ 19 µM)	0.79 ± 0.5 µg/mL (≈ 1.76 µM)	0.94 ± 0.15 µg/mL (≈ 2.1 µM)	about 14 fold	Cumulative permeation after 24 h ([1]; drug in 1% SDS): 0.35 µg/cm^2; Skin retention amount after 24 h ([1]; drug in 1% SDS): 2.6 µg/cm^2; Retention in negative current relative to positive current ([2]; 10 h): ~3.0 fold; Permeation in negative current relative to positive current [2]: ~5.0 fold; Transdermal penetration versus [Cho] [Cin] concentration under IL-IS ([2]; [Cho] [Cin] 0–20%, negative current 0.3 mA, 10 h): increase with the rise in the concentration; Permeation at different pH values ([2]; pH 4.5, pH 6.8 and pH 9.0, 10 h, IS-related factors): no significant change
CN(Cc1ccc(C(C)(C)C)cc1)Cc1cccc2ccccc12 [butenafine]														~16.5 fold	Permeation applying IL-IS relative to IS alone ([2]; negative current 0.3 mA, 10 h): ~11.0 fold
COc1ccc2c(c1)c(CC(=O)O)c(C)n2C(=O)c1ccc(Cl)cc1 [indomethacin]			10.06 µg/cm^2	6.1 µg/cm^2	did not result in a significant difference	not significantly enhanced	little effect	3.3 fold	1.6 fold	2630 ± 648 µg/mL (≈ 7350 µM)	21.5 ± 5.7 µg/mL (≈ 60.1 µM)	2230 ± 136 µg/mL (≈ 6230 µM)	28.5 ± 0.7 µg/mL (≈ 79.7 µM)		
CCN(CC)c1ccc2c(-c3ccccc3C(=O)O)c3ccc(=[N+](CC)CC)cc-3oc2c1 [rhodamine B]															Fluorescence intensity after treatment with endocytosis inhibitors (rat skin; IL, IS and IL-IS groups): partially suppressed; Fluorescence intensity after treatment with endocytosis inhibitors (rat skin; control gel group): no substantial alteration; Transmission pathway in skin (overlap with DAPI) (rat skin; rat skin in vivo, 10 h): primarily occurred through accessory organs; CLSM fluorescence intensity and depth in skin, order of treatments (rat skin; rat skin in vivo, 10 h, control gel, IL gel, IS, IL-IS): IL-IS > IS > IL > Control
COc1cc2nc(N3CCN(C(=O)C4CCCO4)CC3)nc(N)c2cc1OC (stereo not drawn) [terazosin]														~2.6 fold	Permeation applying IL-IS relative to IS alone ([2]; negative current 0.3 mA, 10 h): ~5.2 fold
